From US10280167B2, “Purine derivatives for the treatment of viral infections” (JANSSEN SCIENCES IRELAND UC, priority 2011, dated 2019)

Key:
Type in all cases: cell-based
human TLR7 = human TLR7 (Homo sapiens (Human), UniProt Q9NYK1); experiment: Reporter assay for TLR7 activity, HEK293 transiently transfected with wild type TLR7 and NFκB-luc; conditions: lowest effective concentration; 48 h transfection
[1] = test system: Huh-7 luc/neo HCV replicon cells with conditioned media from PBMC; experiment: Interferon production in human PBMC (PBMC-HUH7_EC50), HCV replicon readout with conditioned media; conditions: concentration applied to PBMCs giving 50% reduction of replicon luciferase activity
Description: Measurement of Interferon Production in Human PBMC (PBMC-HUH7_EC50)
Activation of human TLR7 results in robust production of interferon by plasmacytoid dendritic cells present in human blood. The potential of compounds to induce interferon was evaluated by looking at the antiviral activity in the HCV replicon system upon incubation with conditioned media from peripheral blood mononuclear cells (PBMC). The HCV replicon assay is based on a bicistronic expression construct, as described by Lohmann et al. (Science (1999) 285: 110-113; Journal of Virology (2003) 77: 3007-15 3019) with modifications described by Krieger et al. (Journal of Virology (2001) 75: 4614-4624). The assay utilized the stably transfected cell line Huh-7 luc/neo harboring an RNA encoding a bicistronic expression construct comprising the wild type NS3-NS5B regions of HCV type 1b translated from an Internal Ribosome Entry Site (IRES) from encephalomyocarditis virus (EMCV), preceded by a reporter gene (Firefly-luciferase) and a selectable marker gene (neoR, neomycine phosphotransferase). The construct is flanked by 5′ and 3′ NTRs (non-translated regions) from HCV type 1b. Continued culture of the replicon cells in the presence of G418 (neoR) is dependent on the replication of the HCV RNA. The stably transfected replicon cells that replicate HCV RNA autonomously and to high levels, encoding inter alia luciferase, were used for profiling of the conditioned cell culture media. Briefly, PBMCs were prepared from buffy coats of at least two donors using a standard Ficoll centrifugation protocol. Isolated PBMCs were resuspended in RPMI medium supplemented with 10% human AB serum and 2×10^5 cells/well were dispensed into 384-well plates containing compounds (70 μL total volume). After overnight incubation, […] was transferred to 384-well plates containing 2.2×10^3 replicon cells/well in 30 μL (plated the day before). Following 24 hours of incubation, replication was measured by assaying luciferase activity using 40 μL/well Steady Lite Plus substrate (Perkin Elmer) and measured with ViewLux ultraHTS microplate imager (Perkin Elmer). The inhibitory activity of each compound on the Huh7-luc/neo cells were reported as EC50 values, defined as the compound concentration applied to the PBMCs resulting in a 50% reduction of luciferase activity which in turn indicates the degree of replication of the replicon RNA on transfer of a defined amount of PBMC culture medium. Recombinant interferon α-2a (Roferon-A) was used as a standard control compound.

human TLR7 dIRR2 mutant = experiment: Reporter assay for TLR7 activity, HEK293 transfected with mutant TLR7 (dIRR2 deletion) and NFκB-luc; conditions: lowest effective concentration; 48 h transfection
[2] = test system: HEK-ISRE-luc cells with conditioned media from PBMC; experiment: Interferon production in human PBMC (PBMC HEK-ISRE-luc LEC); conditions: lowest effective concentration; for minimal effective concentration: Homo sapiens, PBMC, read-out: PBMC HEK-ISRE-luc (LEC)
Description: Measurement of Interferon Production in Human PBMC (PBMC HEK-ISRE-Luc LEC)
Activation of human TLR7 results in robust production of interferon by plasmacytoid dendritic cells present in human blood. The potential of compounds to induce interferon was evaluated by determination of interferon in the conditioned media from peripheral blood mononuclear cells (PBMC). The presence of interferon in the samples was determined, using an interferon reporter cell line stably expressing an interferon-stimulated responsive elements (ISRE)-luc reporter construct. The ISRE element with sequence GAAACTGAAACT (SEQ ID NO: 1) is highly responsive to the STAT1-STAT2-IRF9 transcription factor, which becomes activated upon binding of IFN-I to the IFN receptor. Briefly, PBMCs were prepared from buffy coats of at least two donors using a standard Ficoll centrifugation protocol. Isolated PBMCs were resuspended in RPMI medium supplemented with 10% human AB serum and 2×10^5 cells/well were dispensed into 384-well plates containing compounds (70 μL total volume). After overnight incubation of the PBMCs with the compounds, 10 μL of supernatant was transferred to 384-well plates containing 5×10^3 HEK-ISRE-luc cells/well in 30 μL (plated the day before). Following 24 hours of incubation, activation of the ISRE elements was measured by assaying luciferase activity using 40 μL/well Steady Lite Plus substrate (Perkin Elmer) and measured with ViewLux ultraHTS microplate imager (Perkin Elmer). The stimulating activity of each compound on the HEK-ISRE-luc cells was reported as LEC. The LEC in turn indicates the degree of ISRE activation on transfer of a defined amount of PBMC culture medium.
Recombinant interferon alfa-2a (Roferon-A) was used as a standard control compound.

human TLR7, sequence (Q9NYK1 27-1049): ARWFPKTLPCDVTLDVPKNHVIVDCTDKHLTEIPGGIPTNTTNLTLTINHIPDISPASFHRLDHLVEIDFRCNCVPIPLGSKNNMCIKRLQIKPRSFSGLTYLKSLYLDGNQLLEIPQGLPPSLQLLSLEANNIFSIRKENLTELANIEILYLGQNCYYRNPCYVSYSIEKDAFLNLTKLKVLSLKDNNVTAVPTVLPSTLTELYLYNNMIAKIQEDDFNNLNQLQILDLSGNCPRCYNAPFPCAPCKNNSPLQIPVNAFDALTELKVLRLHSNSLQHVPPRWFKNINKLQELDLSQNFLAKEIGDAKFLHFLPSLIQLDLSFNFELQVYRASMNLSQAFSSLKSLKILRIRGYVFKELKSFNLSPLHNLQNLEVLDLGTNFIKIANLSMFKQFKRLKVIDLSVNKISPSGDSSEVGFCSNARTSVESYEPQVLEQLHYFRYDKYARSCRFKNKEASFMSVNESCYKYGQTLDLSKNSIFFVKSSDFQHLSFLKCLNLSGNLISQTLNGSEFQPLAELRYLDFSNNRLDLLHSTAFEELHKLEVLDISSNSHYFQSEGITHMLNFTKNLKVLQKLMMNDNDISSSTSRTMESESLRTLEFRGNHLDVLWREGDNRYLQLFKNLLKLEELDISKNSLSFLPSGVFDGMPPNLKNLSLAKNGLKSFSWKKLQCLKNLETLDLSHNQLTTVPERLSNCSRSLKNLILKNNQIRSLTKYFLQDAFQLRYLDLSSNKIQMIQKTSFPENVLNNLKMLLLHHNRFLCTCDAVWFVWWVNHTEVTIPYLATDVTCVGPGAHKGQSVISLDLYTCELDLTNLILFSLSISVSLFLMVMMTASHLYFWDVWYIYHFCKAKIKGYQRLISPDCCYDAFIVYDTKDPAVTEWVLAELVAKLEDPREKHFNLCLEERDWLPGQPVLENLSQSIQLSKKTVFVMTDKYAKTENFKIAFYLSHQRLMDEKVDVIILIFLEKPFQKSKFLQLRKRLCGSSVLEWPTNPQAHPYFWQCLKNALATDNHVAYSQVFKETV

Compound | TLR7-wt_LEC 48 h (human TLR7) [µM] | EC50 ([1]; Homo sapiens, Huh-7) [nM] | TLR7-dIRR2_LEC 48 h (human TLR7 dIRR2 mutant) [µM] | minimal effective concentration [2] [µM] | EC50 [1] [nM] | PBMC HEK-ISRE-luc (LEC) [2] [µM]
Cc1nc(-c2nc(N)c3[nH]c(=O)n(Cc4ccccc4)c3n2)[nH]c1C [Compound 7] | >25 | 640 | 1.46 | 0.88 | – | –
Nc1nc(-c2ncc[nH]2)nc2c1[nH]c(=O)n2CC1CCOCC1 [Compound 63] | >25 | 6720 | 2.58 | 4.39 | – | –
COCCn1ccnc1-c1nc(N)c2[nH]c(=O)n(Cc3ccccc3)c2n1 [Compound 11] | 5.36 | 330 | 0.19 | 0.32 | – | –
Nc1nc(-c2nc(C3CC3)c[nH]2)nc2c1[nH]c(=O)n2CCCCCCN1CCCC1 [Compound 62] | 21.2 | 700 | >25 | 0.72 | – | –
Cc1ccc(Cn2c(=O)[nH]c3c(N)nc(-c4ncc[nH]4)nc32)cn1 [Compound 9] | 0.88 | 50 | 0.07 | 0.03 | – | –
Nc1nc(-c2nc(C3CC3)c[nH]2)nc2c1[nH]c(=O)n2Cc1ccc2c(c1)CNCC2 [Compound 60] | >25 | 34 | 1.25 | 0.019 | – | –
CC(C)c1c[nH]c(-c2nc(N)c3[nH]c(=O)n(Cc4ccccc4)c3n2)n1 [Compound 29] | – | 1660 | 1.58 | 0.82 | – | –
Cc1noc(-c2nc(N)c3[nH]c(=O)n(Cc4ccccc4)c3n2)n1 [Compound 33] | 21.66 | 810 | 0.98 | 0.52 | – | –
Nc1nc(-c2nccn2CCO)nc2c1[nH]c(=O)n2Cc1ccccc1 [Compound 27] | 6.03 | 800 | 0.63 | 0.43 | – | –
CN(C)CCOc1ccc(Cn2c(=O)[nH]c3c(N)nc(-c4nc(C5CC5)c[nH]4)nc32)cn1 [Compound 54] | 16.1 | 50 | 5.65 | 0.07 | – | –
Nc1nc(-c2ccn[nH]2)nc2c1[nH]c(=O)n2Cc1ccccc1 [Compound 23] | 0.23 | 130 | 0.007 | 0.12 | – | –
Cc1cnn(-c2nc(N)c3[nH]c(=O)n(Cc4ccccc4)c3n2)c1 [Compound 35] | 0.36 | 170 | 0.033 | 0.1 | – | –
Nc1nc(-c2ncc[nH]2)nc2c1[nH]c(=O)n2Cc1cccc(C(=O)N2CCCC2)c1 [Compound 55] | – | 1270 | 0.06 | 1.16 | – | –
CN1CCN(CCCCCn2c(=O)[nH]c3c(N)nc(-c4ncc[nH]4)nc32)CC1 [Compound 61] | >25 | – | 9.73 | – | 1340 | 0.95
Nc1nc(-c2nc(C(F)(F)F)c[nH]2)nc2c1[nH]c(=O)n2Cc1ccccc1 [Compound 31] | 23.23 | 1300 | 0.51 | 2.2 | – | –
Nc1nc(-c2cnco2)nc2c1[nH]c(=O)n2Cc1ccccc1 [Compound 32] | 6.5 | 1510 | 0.97 | 0.97 | – | –
CC(C)(C)c1c[nH]c(-c2nc(N)c3[nH]c(=O)n(Cc4ccccc4)c3n2)n1 [Compound 28] | >25 | > 23800 | 8.77 | > 23.8 | – | –
COCCc1nnc(-c2nc(N)c3[nH]c(=O)n(Cc4ccccc4)c3n2)o1 [Compound 34] | >25 | 690 | 1.21 | 0.49 | – | –
Cc1ccc(Cn2c(=O)[nH]c3c(N)nc(-c4nc(C5CC5)c[nH]4)nc32)cn1 [Compound 26] | 2.42 | 5 | 0.21 | 0.006 | – | –
Nc1nc(-c2ncc[nH]2)nc2c1[nH]c(=O)n2Cc1cccc(CN2CCCC2)c1 [Compound 25] | 2.46 | 6 | 0.39 | 0.007 | – | –
Nc1nc(-c2ncc[nH]2)nc2c1[nH]c(=O)n2Cc1ccc2c(c1)CNCC2 [Compound 24] | 1.81 | 46 | 0.11 | 0.03 | – | –
Nc1nc(-c2ncc[nH]2)nc2c1[nH]c(=O)n2Cc1ccc(OCC(=O)O)nc1 [Compound 58] | 0.99 | 2750 | 0.06 | 2.69 | – | –
CCc1c[nH]c(-c2nc(N)c3[nH]c(=O)n(Cc4ccccc4)c3n2)n1 [Compound 30] | 12.71 | 170 | 0.14 | 0.12 | – | –
COC(=O)COc1ccc(Cn2c(=O)[nH]c3c(N)nc(-c4ncc[nH]4)nc32)cn1 [Compound 57] | 0.44 | 1210 | 0.06 | 1.38 | – | –
Cc1cn[nH]c1-c1nc(N)c2[nH]c(=O)n(Cc3ccccc3)c2n1 [Compound 53] | 3.17 | 760 | 0.36 | – | – | –
